Test system: genotype A, "Long" strain RSV
Assay: RSV-A assay (CPE protection in Hep-2 cells, ATPlite readout)
Assay type: cell-based, Human respiratory syncytial virus (HRSV)
Details: human respiratory syncytial virus, RSV-A Long strain, MOI 0.1, CPE protection, read-out: Human RSV-A (“Long”) EC50
Source text: Hep-2 cells, (originally derived from tumors grown in irradiated-cortisonised weanling rats that had been injected with epidermoid carcinoma tissue from the larynx of a person, but later found to be indistinguishable from HeLa cells by PCR DNA analysis), were used for the culturing of genotype A, “Long” strain RSV. Flasks were inoculated with RSV and viral stocks were collected once cytopathic effect (CPE) was greater than 90%. Viral stocks in 25% sucrose media were snap frozen using liquid nitrogen to increase viral stability. Viral stock titers were quantified by tissue culture infectious dose 50% (TCID50) using 8,000 cells per well and 3-fold viral dilutions across a 96-well plate, cultured for 4 days. Viral stock titers were also quantified by a plaque forming unit assay, as described elsewhere.
Following extensive parameter testing, the final assay is run as follows: Hep-2 cells are seeded into the inner 60 wells of a 96-well plate at 8,000 cells per well in a volume of 50 μL using Growth Media (DMEM without phenol red, 1% L-Glut, 1% Penn/Strep, 1% nonessential amino acids, 10% heat-inactivated FBS). 2-fold serial dilutions of control and test compounds are added to the wells in duplicate in a total volume of 25 μL. Viral stock is then added to the wells at a multiplicity of infection (MOI) of 0.1 in a volume of 25 μL, bringing the total volume of each well to 100 μL. The MOI is calculated using the PFU/mL, or TCID50 if unavailable. Each 96-well plate has a control column of 6 wells with cells and virus but no compound (negative control, max CPE), a column with cells but no compound or virus (positive control, minimum CPE), and a column with no cells or virus or compound (background plate/reagent control). The control wells with cells but no virus are given an additional 25 μL of growth media containing an equal quantity of sucrose as those wells receiving the viral stock in order to keep consistent in media and volume conditions. The outer wells of the plate are filled with 125 μL of moat media (DMEM, 1% Penn/Strep) to act as a thermal and evaporative moat around the test wells. Following a 5-day incubation period, the plates are read using ATPlite (50 uL added per well), which quantifies the amount of ATP (a measure of cell health) present in each well. Assay plates are read using the Envision luminometer. […] EC50 ranges are as follows: A<0.2 μM; B>0.2 μM.

Compound | EC50
COc1cc(C(=O)NC[C@](O)(c2cc3c(c(-c4ccc(F)c(Cl)c4F)n2)OC[C@]3(C)C(N)=O)C2CC2)cc2cc(Br)c(C)nc12 [Example 1129] | < 200 nM
COc1cc(C(=O)NC[C@](O)(c2cc3c(c(-c4cc(F)c(Cl)cc4Cl)n2)OC[C@]3(C)C(N)=O)C(F)(F)F)cc2cn(C3CC3)nc12 [Example 1265] | < 200 nM
COc1cc(C(=O)NC[C@](O)(c2cc3c(c(-c4ccc5c(c4)OC(F)(F)O5)n2)OC[C@]3(C)C(N)=O)C(F)(F)F)cc2cc(C3CC3)nnc12 [Example 1111] | < 200 nM
COc1cc(C(=O)NCC(O)(c2cc3c(c(-c4ccc5c(c4)OC(F)(F)C5(F)F)n2)OC[C@]3(C)C(N)=O)C(F)(F)F)cc2cn(C3CC3)nc12 (stereo partly drawn) [Example 1236] | > 200 nM
COc1cc(C(=O)NC[C@](O)(c2cc3c(c(-c4ccc(F)cc4)n2)OC[C@]3(C(N)=O)C(F)F)C(F)(F)F)cc2cn(C3CC3)nc12 [Example 998] | < 200 nM
COc1cc(C(=O)NC[C@](O)(c2cc3c(c(-c4ccc(F)cc4)n2)OC[C@]3(C)C(N)=O)C2(F)CC2)cc2cc(Br)c(C)nc12 [Example 1118] | < 200 nM
COc1cc(C(=O)NCC(O)(c2cc3c(c(-c4cc(F)c(Cl)c(F)c4)n2)OC[C@]3(C)C(N)=O)C(F)(F)F)cc2cn(C3CC3)nc12 (stereo partly drawn) [Example 1245] | < 200 nM
COc1cc(C(=O)NC[C@](O)(c2cc3c(c(N4CCC(F)(F)CC4)n2)OC[C@]3(C)C(N)=O)C(F)(F)F)cc2cn(C3CC3)nc12 [Example 1270] | < 200 nM
COc1cc(C(=O)NC[C@](O)(c2cc3c(c(-c4ccc(F)cc4)n2)OC[C@]3(C)C(=O)NC2(C)CC2)C(F)(F)F)cc2cn(C3CC3)nc12 [Example 1176] | < 200 nM
COc1cc(C(=O)NC[C@@](O)(c2cc3c(c(-c4ccc(C(F)F)cc4)n2)OC[C@]3(C)C(N)=O)C(F)(F)F)cc2cn(C3CC3)nc12 [Example 895] | > 200 nM
C[C@]1(C(N)=O)COc2c1cc([C@@](O)(CNC(=O)c1cc(OC3CC3)c3nn(C(F)F)cc3c1)C1CC1)nc2-c1ccc(F)c(F)c1Cl [Example 1197] | < 200 nM
COc1cc(C(=O)NC[C@](O)(c2cc3c(c(-c4ccc5c(c4)OC(F)(F)O5)n2)OC[C@]3(C)C(N)=O)C2CC2)cc2sc(C)nc12 [Example 1291] | < 200 nM
COc1cc(C(=O)NCC(O)(c2cc3c(c(-c4cc(Cl)cc(Cl)c4)n2)OC[C@]3(C)C(N)=O)C(F)(F)F)cc2cn(C3CC3)nc12 (stereo partly drawn) [Example 1256] | < 200 nM

Same assay, conditions: human respiratory syncytial virus, genotype A “Long” strain RSV, MOI 0.1, CPE protection, read-out: Human RSV-A (“Long”)

Compound | EC50
COc1cc(C(=O)NC[C@](O)(c2cc3c(c(-c4ccc(F)cc4)n2)OCC3(C(N)=O)C(F)F)C(F)(F)F)cn2cc(C3CC3)nc12 (stereo partly drawn) [Example 259] | < 200 nM
C[C@]1(C(N)=O)COc2c1cc([C@@](O)(CNC(=O)c1cnn3ccncc13)C(F)(F)F)nc2-c1ccc(F)cc1 [Example 439] | > 200 nM
Cc1ccsc1C(=O)NC[C@](O)(c1cc2c(c(-c3ccc(F)cc3)n1)OC[C@]2(C)C(N)=O)C(F)(F)F [Example 386] | > 200 nM
C[C@]1(C(N)=O)COc2c1cc([C@@](O)(CNC(=O)c1ccn3nc(C4CC4)cc3c1)C(F)(F)F)nc2-c1ccc(F)cc1 [Example 88] | < 200 nM
C[C@]1(C(N)=O)COc2c1cc([C@@](O)(CNC(=O)c1ccc3[nH]c(C4CC4)nc3c1)C(F)(F)F)nc2-c1ccc(F)cc1 [Example 193] | > 200 nM
CN[C@H](C)COc1ccc(C(=O)NC[C@](O)(c2cc3c(c(-c4ccc(F)cc4)n2)OC[C@]3(C)C(N)=O)C(F)(F)F)cc1OC [Example 151] | > 200 nM
C[C@H](O)CNc1nc2ccc(C(=O)NC[C@](O)(c3cc4c(c(-c5ccc(F)cc5)n3)OC[C@]4(C)C(N)=O)C(F)(F)F)cc2s1 [Example 163] | < 200 nM
COC(=O)Nc1cc(C(=O)NC[C@](O)(c2cc3c(c(-c4ccc(F)cc4)n2)OC[C@]3(C)C(N)=O)C(F)(F)F)ccc1F [Example 340] | < 200 nM
C[C@]1(C(N)=O)COc2c1cc([C@@](O)(CNC(=O)c1nccc3[nH]ccc13)C(F)(F)F)nc2-c1ccc(F)cc1 [Example 388] | > 200 nM
CCN1Cc2cc(C(=O)NC[C@](O)(c3cc4c(c(-c5ccc(F)cc5)n3)OC[C@]4(C)C(N)=O)C(F)(F)F)ccc2C1=O [Example 36] | < 200 nM
C[C@]1(C(N)=O)COc2c1cc([C@@](O)(CNC(=O)c1cccc3nccn13)C(F)(F)F)nc2-c1ccc(F)cc1 [Example 360] | > 200 nM
Cc1ccc2cc(C(=O)NC[C@](O)(c3cc4c(c(-c5ccc(F)cc5)n3)OC[C@]4(C)C(N)=O)C(F)(F)F)cc(N3CCCC3=O)c2n1 [Example 38] | > 200 nM
C[C@]1(C(N)=O)COc2c1cc([C@@](O)(CNC(=O)c1ccoc1)C(F)(F)F)nc2-c1ccc(F)cc1 [Example 363] | > 200 nM
C[C@]1(C(N)=O)COc2c1cc([C@@](O)(CNC(=O)c1cc(Br)c3[nH]cnc3c1)C(F)(F)F)nc2-c1ccc(F)cc1 [Example 195] | < 200 nM
C[C@]1(C(N)=O)COc2c1cc([C@@](O)(CNC(=O)c1cnc3cnccn13)C(F)(F)F)nc2-c1ccc(F)cc1 [Example 436] | > 200 nM
COC(=O)C12CC(C(=O)NC[C@](O)(c3cc4c(c(-c5ccc(F)cc5)n3)OC[C@]4(C)C(N)=O)C(F)(F)F)(C1)C2 [Example 442] | > 200 nM
COc1cc(C(=O)NC[C@](O)(c2cc3c(c(-c4ccc(F)cc4)n2)OCC3(C(N)=O)C(F)F)C(F)(F)F)cc2c1=NC(C1CC1)N=2 (stereo partly drawn) [Example 253] | < 200 nM
C[C@]1(C(N)=O)COc2c1cc([C@@](O)(CNC(=O)c1cn(-c3ccccc3)nc1C(F)(F)F)C(F)(F)F)nc2-c1ccc(F)cc1 [Example 457] | > 200 nM
C[C@]1(C(N)=O)COc2c1cc([C@@](O)(CNC(=O)c1cc3cccc(F)c3s1)C(F)(F)F)nc2-c1ccc(F)cc1 [Example 379] | > 200 nM
C[C@]1(C(N)=O)COc2c1cc([C@@](O)(CNC(=O)c1cc3c(cc1Cl)NC(=O)C3)C(F)(F)F)nc2-c1ccc(F)cc1 [Example 341] | > 200 nM
COc1ccc(-c2cc(C(=O)NC[C@](O)(c3cc4c(c(-c5ccc(F)cc5)n3)OC[C@]4(C)C(N)=O)C(F)(F)F)n[nH]2)cc1 [Example 209] | > 200 nM
COc1cc(C(=O)NC[C@](O)(c2cc3c(c(-c4ccc(F)cc4)n2)OC[C@@]3(CF)C(N)=O)C(F)(F)F)cc2cccnc12 [Example 282] | > 200 nM
Cc1ncccc1C(=O)NC[C@](O)(c1cc2c(c(-c3ccc(F)cc3)n1)OC[C@]2(C)C(N)=O)C(F)(F)F [Example 334] | > 200 nM
NC(=O)[C@@]1(CF)COc2c1cc([C@@](O)(CNC(=O)c1cc(OC3CC3)c3ncccc3c1)C(F)(F)F)nc2-c1ccc(F)cc1 [Example 297] | < 200 nM
C[C@]1(C(N)=O)COc2c1cc([C@@](O)(CNC(=O)c1cn3cc(OC4CC4)ccc3n1)C(F)(F)F)nc2-c1ccc(F)cc1 [Example 813] | > 200 nM
NC(=O)[C@]1(CF)COc2c1cc([C@@](O)(CNC(=O)c1cc(OC3CC3)c3ncccc3c1)C(F)(F)F)nc2-c1ccc(F)cc1 [Example 296] | > 200 nM
C[C@]1(C(N)=O)COc2c1cc([C@@](O)(CNC(=O)c1cc(F)c3oc(N)nc3c1)C(F)(F)F)nc2-c1ccc(F)cc1 [Example 90] | < 200 nM
C[C@]1(C(N)=O)COc2c1cc([C@@](O)(CNC(=O)c1cnn3cccc3c1Cl)C(F)(F)F)nc2-c1ccc(F)cc1 [Example 198] | > 200 nM
C[C@]1(C(N)=O)COc2c1cc([C@@](O)(CNC(=O)c1cc(F)c3nc(C(N)=O)cn3c1)C(F)(F)F)nc2-c1ccc(F)cc1 [Example 79] | > 200 nM

Source: patent US12612412B2, “Antiviral heterocyclic compounds” (Enanta Pharmaceuticals, Inc., priority 2021, dated 2026)
